Experimental data published in patent US9695155B2, “Herbicidal substituted pyrimidinyloxy benzene compounds” (E. I. DU PONT DE NEMOURS AND COMPANY, priority 2013, dated 2017).

Key:
ragweed = test: Test C preemergence; format: in vivo, Ambrosia elatior
How it was run: (§1)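 Visual injury score versus untreated controls, 0 = no effect, 100 = complete control, taken 13 to 15 days after treatment in the greenhouse. Pre-emergence pots held loam/sand; post-emergence plants grew in sphagnum peat/vermiculite mix and were sprayed at the 1- to 4-leaf stage.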

Italian ryegrass = test: Test C preemergence; format: in vivo, Lolium multiflorum
How it was run: as §1

giant foxtail = test: Test A postemergence; format: in vivo, Setaria faberii; details: 0 to 100 scale where 0 is no effect and 100 is complete control
How it was run: (§2)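 Greenhouse pot test, loam/sand soil. Formulation: non-phytotoxic solvent mix plus surfactant. Pre: directed spray onto soil after sowing. Post: plants at 1–2 leaf, 2–10 cm. Rated visually vs untreated controls at ~10 d, 0 (no effect) to 100 (complete control).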

Heteranthera limosa = test: Test B flooded paddy test; format: in vivo; details: Flood, 250 g ai/ha, 0 to 100 scale where 0 is no effect and 100 is complete control
How it was run: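 2-leaf stage plants; pots flooded to 3 cm, compound added to paddy water, depth maintained. Greenhouse 13–15 d. Visual rating vs untreated controls, 0 (no effect) to 100 (complete control); dash = no result.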

morningglory = test: Test C postemergence; format: in vivo, Ipomoea coccinea
How it was run: as §1

oilseed rape = test: Test C preemergence; format: in vivo, Brassica napus
How it was run: as §1

pigweed = test: Test C postemergence; format: in vivo, Amaranthus retroflexus
How it was run: as §1

kochia = test: Test C postemergence; format: in vivo, Kochia scoparia
How it was run: as §1

corn [1] = test: Test C postemergence; format: in vivo, Zea mays
How it was run: as §1

barnyardgrass = test: Test A preemergence; format: in vivo, Echinochloa crus-galli
How it was run: as §2

corn [2] = test: Test A postemergence; format: in vivo, Zea mays
How it was run: as §2

wild oat = test: Test C postemergence; format: in vivo, Avena fatua
How it was run: as §1

[3] = 16 g ai/ha, preemergence, scale 0 to 100 (0 no effect, 100 complete control)
[4] = 62 g ai/ha, preemergence, scale 0 (no effect) to 100 (complete control)
[5] = 125 g ai/ha, preemergence, scale 0 (no effect) to 100 (complete control)
[6] = Preemergence, 31 g ai/ha, scale 0 to 100, 0 no effect, 100 complete control
[7] = Postemergence, 31 g ai/ha, scale 0 to 100 (0 no effect, 100 complete control), 13 to 15 days
[8] = Postemergence, 62 g ai/ha, scale 0 to 100 (0 no effect, 100 complete control)
[9] = 16 g ai/ha, postemergence, visual rating, scale 0 to 100 (0 no effect, 100 complete control), 13 to 15 days
[10] = 125 g ai/ha, 0 to 100 scale where 0 is no effect and 100 is complete control

## FC(F)(F)Sc1cnn(-c2ccccc2Oc2ncc(Cl)cn2)c1 [Compound 132, 5-chloro-2-[2-[4-(trifluoromethylthio)-1H-pyrazol-1-yl]phenoxy]pyrimidine]
ragweed; Ambrosia artemisiifolia, pre-emergence, 16 g ai/ha, preemergence, scale 0 to 100 (0 no effect, 100 complete control), read-out: Ragweed plant response rating
  pest or weed control at 16 g/ha: 10%
ragweed; Ambrosia artemisiifolia, pre-emergence, 62 g ai/ha, preemergence, scale 0 (no effect) to 100 (complete control), read-out: Ragweed plant response rating
  pest or weed control at 62 g/ha: 40%
ragweed; Ambrosia artemisiifolia, pre-emergence, 125 g ai/ha, preemergence, scale 0 (no effect) to 100 (complete control), read-out: Ragweed plant response rating
  pest or weed control at 125 g/ha: 30%
ragweed; Ambrosia artemisiifolia, pre-emergence, Preemergence, 31 g ai/ha, scale 0 to 100, 0 no effect, 100 complete control, read-out: Plant response rating, Ragweed
  pest or weed control at 31 g/ha: 10%
Italian ryegrass; Lolium multiflorum, pre-emergence, 16 g ai/ha, preemergence, scale 0 to 100 (0 no effect, 100 complete control), read-out: Ryegrass, Italian plant response rating
  pest or weed control at 16 g/ha: 0%
Italian ryegrass; Lolium multiflorum, pre-emergence, 62 g ai/ha, preemergence, scale 0 (no effect) to 100 (complete control), read-out: Ryegrass, Italian plant response rating
  pest or weed control at 62 g/ha: 5%
Italian ryegrass; Lolium multiflorum, pre-emergence, 125 g ai/ha, preemergence, scale 0 (no effect) to 100 (complete control), read-out: Ryegrass, Italian plant response rating
  pest or weed control at 125 g/ha: 30%
Italian ryegrass; Lolium multiflorum, pre-emergence, Preemergence, 31 g ai/ha, scale 0 to 100, 0 no effect, 100 complete control, read-out: Plant response rating, Ryegrass, Italian
  pest or weed control at 31 g/ha: 0%
Giant foxtail; Setaria faberi, post-emergence, 240 h, 125 g ai/ha, read-out: Foxtail, Giant plant response rating
  pest or weed control at 125 g/ha: 60%
Giant foxtail; Setaria faberi, post-emergence, 240 h, 500 g ai/ha, read-out: Plant response rating, Foxtail, Giant
  pest or weed control at 500 g/ha: 90%
Heteranthera limosa; Heteranthera limosa, read-out: Plant response rating, Ducksalad
  pest or weed control at 250 g/ha: 0%
morningglory; Ipomoea, post-emergence, 16 g ai/ha, postemergence, 0 is no effect, 100 is complete control, read-out: Plant response rating (0 to 100), Morningglory
  pest or weed control at 16 g/ha: 10%
morningglory; Ipomoea, post-emergence, 125 g ai/ha, postemergence, visual rating, scale 0 to 100 (0 no effect, 100 complete control), read-out: Plant response rating, Morningglory
  pest or weed control at 125 g/ha: 65%
morningglory; Ipomoea, post-emergence, Postemergence, 62 g ai/ha, scale 0 to 100 (0 no effect, 100 complete control), read-out: Plant response rating, Morningglory
  pest or weed control at 62 g/ha: 75%
Oilseed rape; Brassica napus, pre-emergence, 16 g ai/ha, preemergence, scale 0 to 100 (0 no effect, 100 complete control), read-out: Oilseed Rape plant response rating
  plant injury at 16 g/ha: 20%
Oilseed rape; Brassica napus, pre-emergence, 62 g ai/ha, preemergence, scale 0 (no effect) to 100 (complete control), read-out: Oilseed Rape plant response rating
  plant injury at 62 g/ha: 100%
Oilseed rape; Brassica napus, pre-emergence, 125 g ai/ha, preemergence, scale 0 (no effect) to 100 (complete control), read-out: Oilseed Rape plant response rating
  plant injury at 125 g/ha: 100%
Oilseed rape; Brassica napus, pre-emergence, Preemergence, 31 g ai/ha, scale 0 to 100, 0 no effect, 100 complete control, read-out: Plant response rating, Oilseed Rape
  plant injury at 31 g/ha: 85%
pigweed; Amaranthus retroflexus, post-emergence, 16 g ai/ha, postemergence, 0 is no effect, 100 is complete control, read-out: Plant response rating (0 to 100), Pigweed
  pest or weed control at 16 g/ha: 25%
pigweed; Amaranthus retroflexus, post-emergence, 125 g ai/ha, postemergence, visual rating, scale 0 to 100 (0 no effect, 100 complete control), read-out: Plant response rating, Pigweed
  pest or weed control at 125 g/ha: 80%
pigweed; Amaranthus retroflexus, post-emergence, Postemergence, 62 g ai/ha, scale 0 to 100 (0 no effect, 100 complete control), read-out: Plant response rating, Pigweed
  pest or weed control at 62 g/ha: 75%
kochia; Bassia scoparia, post-emergence, 16 g ai/ha, postemergence, 0 is no effect, 100 is complete control, read-out: Plant response rating (0 to 100), Kochia
  pest or weed control at 16 g/ha: 10%
kochia; Bassia scoparia, post-emergence, 125 g ai/ha, postemergence, visual rating, scale 0 to 100 (0 no effect, 100 complete control), read-out: Plant response rating, Kochia
  pest or weed control at 125 g/ha: 95%
kochia; Bassia scoparia, post-emergence, Postemergence, 62 g ai/ha, scale 0 to 100 (0 no effect, 100 complete control), read-out: Plant response rating, Kochia
  pest or weed control at 62 g/ha: 85%
Corn [1]; Zea mays, post-emergence, 16 g ai/ha, postemergence, 0 is no effect, 100 is complete control, read-out: Plant response rating (0 to 100), Corn
  plant injury at 16 g/ha: 5%
Corn [1]; Zea mays, post-emergence, 125 g ai/ha, postemergence, visual rating, scale 0 to 100 (0 no effect, 100 complete control)
  Corn plant response rating (crop injury, 0 = no effect, 100 = complete kill) at 125 g/ha: 10%
Corn [1]; Zea mays, post-emergence, Postemergence, 62 g ai/ha, scale 0 to 100 (0 no effect, 100 complete control)
  Corn plant response rating (crop injury, 0 = no effect, 100 = complete kill) at 62 g/ha: 5%
barnyardgrass; Echinochloa crus-galli, pre-emergence, 240 h, 125 g ai/ha, 0 to 100 scale where 0 is no effect and 100 is complete control, read-out: Plant response rating, Barnyardgrass
  pest or weed control at 125 g/ha: 50%
barnyardgrass; Echinochloa crus-galli, pre-emergence, 240 h, 500 g ai/ha, 0 to 100 scale where 0 is no effect and 100 is complete control, read-out: Barnyardgrass plant response rating
  pest or weed control at 500 g/ha: 100%
Corn [2]; Zea mays, post-emergence, 240 h, 125 g ai/ha, 0 to 100 scale where 0 is no effect and 100 is complete control, read-out: Corn plant response rating
  plant injury at 125 g/ha: 20%
Corn [2]; Zea mays, post-emergence, 240 h, 500 g ai/ha, 0 to 100 scale where 0 is no effect and 100 is complete control
  Corn plant response rating (crop injury, 0 = no effect, 100 = complete kill) at 500 g/ha: 50%
Wild oat; Avena fatua, post-emergence, 16 g ai/ha, postemergence, 0 is no effect, 100 is complete control, read-out: Plant response rating (0 to 100), Oat, Wild
  pest or weed control at 16 g/ha: 0%
Wild oat; Avena fatua, post-emergence, 125 g ai/ha, postemergence, visual rating, scale 0 to 100 (0 no effect, 100 complete control), read-out: Plant response rating, Oat, Wild
  pest or weed control at 125 g/ha: 5%
Wild oat; Avena fatua, post-emergence, Postemergence, 62 g ai/ha, scale 0 to 100 (0 no effect, 100 complete control), read-out: Plant response rating, Oat, Wild
  pest or weed control at 62 g/ha: 5%

## CCOc1cn(-c2c(Br)cccc2Oc2ncc(Cl)cn2)nn1 [Compound 84]
ragweed; [3]
  Ragweed plant response rating: 0
ragweed; [4]
  Ragweed plant response rating: 60
ragweed; [5]
  Ragweed plant response rating: 85
ragweed; [6]
  Plant response rating, Ragweed: 60
Italian ryegrass; [3]
  Ryegrass, Italian plant response rating: 0
Italian ryegrass; [4]
  Ryegrass, Italian plant response rating: 5
Italian ryegrass; [5]
  Ryegrass, Italian plant response rating: 5
Italian ryegrass; [6]
  Plant response rating, Ryegrass, Italian: 5
Giant foxtail; 125 g ai/ha
  Plant response rating, Foxtail, Giant: 100
Giant foxtail; 500 g ai/ha
  Plant response rating, Foxtail, Giant: 100
Heteranthera limosa
  Plant response rating, Ducksalad: 50
morningglory; 125 g ai/ha, postemergence
  Plant response rating (0 to 100), Morningglory: 85
morningglory; [7]
  Plant response rating, Morningglory: 70
morningglory; [8]
  Plant response rating, Morningglory: 85
Oilseed rape; [3]
  Oilseed Rape plant response rating: 50
Oilseed rape; [4]
  Oilseed Rape plant response rating: 100
Oilseed rape; [5]
  Oilseed Rape plant response rating: 100
Oilseed rape; [6]
  Plant response rating, Oilseed Rape: 85
pigweed; 125 g ai/ha, postemergence
  Plant response rating (0 to 100), Pigweed: 85
pigweed; [7]
  Plant response rating, Pigweed: 50
pigweed; [8]
  Plant response rating, Pigweed: 80
kochia; [9]
  Kochia plant response rating: 55
kochia; 125 g ai/ha, postemergence
  Plant response rating (0 to 100), Kochia: 80
kochia; [7]
  Plant response rating, Kochia: 55
kochia; [8]
  Plant response rating, Kochia: 70
Corn [1]; [9]
  Corn plant response rating: 0
Corn [1]; 125 g ai/ha, postemergence
  Plant response rating (0 to 100), Corn: 5
Corn [1]; [7]
  Plant response rating, Corn: 0
Corn [1]; [8]
  Plant response rating, Corn: 0
barnyardgrass; [10]
  Plant response rating, Barnyardgrass: 50
barnyardgrass; 500 g ai/ha, 0 to 100 scale, 0 no effect, 100 complete control, approx. 10 days
  Barnyardgrass plant response rating: 90
Corn [2]; [10]
  Plant response rating, Corn: 20
Corn [2]; 500 g ai/ha, 0 to 100 scale, 0 no effect, 100 complete control
  Plant response rating, Corn: 70
Wild oat; 125 g ai/ha, postemergence
  Plant response rating (0 to 100), Oat, Wild: 15
Wild oat; [7]
  Plant response rating, Oat, Wild: 0
Wild oat; [8]
  Plant response rating, Oat, Wild: 5
